Columns and labels:
free factor Xa = free factor Xa (Homo sapiens, UniProt P00742); details: cited from earlier work
factor Xa = molecular target: T1, factor Xa (Homo sapiens, UniProt P00742); details: patients with stable coronary artery disease taking usual comedication; cited from earlier work
T1 construct: host or cells: blood of patients (in vivo / ex vivo)

[1] = molecular target: factor Xa assembled in the prothrombinase complex (Factor Xa, Factor Va, calcium and phospholipid) (Homo sapiens, UniProt P00742); details: cited from earlier work
[2] = humans; cited from earlier work
[3] = Level of impurities in dependency on pH and storage time (1 mg/mL, autoclaved one time, stored at 40° C. and 75% RH, HPLC); type: physicochemical
Protocol: The appropriate pH value was adjusted by using sodium hydroxide solution (1 M sodium hydroxide) or diluted hydrochloric acid (1 M hydrochloric acid). The prepared vials were autoclaved one time and were stored at 40° C. and 75% RH (relative humidity).

thrombosis = details: rodent, canine and porcine models; cited from earlier work
[4] = Level of impurities in dependency on pH and repeated autoclaving (1 mg/mL Otamixaban, citrate composition of Example 5, HPLC); type: physicochemical
Protocol: The appropriate pH value was adjusted by using sodium hydroxide solution (1 M sodium hydroxide) or diluted hydrochloric acid (1 M hydrochloric acid). […] [table] […] The mobile phase was filtered through a 1.5 μm filter. Typically, add 500 mL of mobile phase A to 500 mL of acetonitrile. Mix and degas. [table] [table]

factor Xa assembled in the prothrombinase complex (Factor Xa, Factor Va, calcium and phospholipid), sequence (P00742 235-488 limits assumed): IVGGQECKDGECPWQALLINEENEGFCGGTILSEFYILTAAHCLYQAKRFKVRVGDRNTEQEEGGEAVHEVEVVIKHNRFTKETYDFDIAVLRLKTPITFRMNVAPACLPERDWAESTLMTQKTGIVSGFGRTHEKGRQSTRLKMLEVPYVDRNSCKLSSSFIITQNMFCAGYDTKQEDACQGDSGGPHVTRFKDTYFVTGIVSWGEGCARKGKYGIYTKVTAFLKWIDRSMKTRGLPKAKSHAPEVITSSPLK
factor Xa assembled in the prothrombinase complex (Factor Xa, Factor Va, calcium and phospholipid), sequence (P00742 41-179 limits assumed): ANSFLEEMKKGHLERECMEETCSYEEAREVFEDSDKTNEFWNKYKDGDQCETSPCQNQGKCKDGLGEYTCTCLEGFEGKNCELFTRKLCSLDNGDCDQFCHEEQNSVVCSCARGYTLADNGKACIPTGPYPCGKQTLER
factor Xa assembled in the prothrombinase complex (Factor Xa, Factor Va, calcium and phospholipid), sequence (P12259 29-737 partner limits assumed): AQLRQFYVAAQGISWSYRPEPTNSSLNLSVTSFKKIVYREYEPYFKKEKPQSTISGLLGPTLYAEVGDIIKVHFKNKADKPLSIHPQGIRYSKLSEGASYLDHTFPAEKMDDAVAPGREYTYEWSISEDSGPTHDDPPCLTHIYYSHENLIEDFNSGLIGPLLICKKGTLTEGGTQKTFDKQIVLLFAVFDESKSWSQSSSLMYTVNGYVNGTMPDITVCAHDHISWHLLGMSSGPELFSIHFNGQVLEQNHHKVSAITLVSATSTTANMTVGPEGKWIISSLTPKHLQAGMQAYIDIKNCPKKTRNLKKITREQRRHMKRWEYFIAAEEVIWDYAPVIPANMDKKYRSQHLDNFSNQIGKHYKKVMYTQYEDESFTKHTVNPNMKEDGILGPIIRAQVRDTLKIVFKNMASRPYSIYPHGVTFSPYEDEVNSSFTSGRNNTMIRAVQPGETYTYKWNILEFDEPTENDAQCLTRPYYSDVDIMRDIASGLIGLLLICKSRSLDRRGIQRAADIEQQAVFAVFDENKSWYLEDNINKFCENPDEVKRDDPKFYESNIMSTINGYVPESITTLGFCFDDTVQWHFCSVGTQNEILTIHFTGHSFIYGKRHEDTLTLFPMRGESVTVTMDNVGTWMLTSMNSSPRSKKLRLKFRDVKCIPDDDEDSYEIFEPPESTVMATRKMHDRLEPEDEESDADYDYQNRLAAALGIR
factor Xa assembled in the prothrombinase complex (Factor Xa, Factor Va, calcium and phospholipid), sequence (P12259 1574-2224 partner limits assumed): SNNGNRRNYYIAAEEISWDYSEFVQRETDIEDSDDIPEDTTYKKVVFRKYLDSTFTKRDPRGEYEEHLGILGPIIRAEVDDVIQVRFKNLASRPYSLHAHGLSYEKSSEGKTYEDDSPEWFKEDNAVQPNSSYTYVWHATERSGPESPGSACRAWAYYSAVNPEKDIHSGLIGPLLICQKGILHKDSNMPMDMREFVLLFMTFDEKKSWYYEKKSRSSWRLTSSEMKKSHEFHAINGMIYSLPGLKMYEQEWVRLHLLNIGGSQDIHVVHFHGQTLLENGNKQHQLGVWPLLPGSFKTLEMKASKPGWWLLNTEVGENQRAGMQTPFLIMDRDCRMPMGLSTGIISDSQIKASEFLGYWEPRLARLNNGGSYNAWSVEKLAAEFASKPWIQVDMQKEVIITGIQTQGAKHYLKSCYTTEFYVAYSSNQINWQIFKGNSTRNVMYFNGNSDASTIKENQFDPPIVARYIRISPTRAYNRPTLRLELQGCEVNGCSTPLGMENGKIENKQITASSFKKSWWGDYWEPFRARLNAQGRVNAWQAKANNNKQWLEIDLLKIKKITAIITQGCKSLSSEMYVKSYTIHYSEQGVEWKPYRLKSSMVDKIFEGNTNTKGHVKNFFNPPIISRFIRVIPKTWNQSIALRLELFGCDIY
T1 sequence (P00742 235-488 limits assumed): as the sequence (P00742 235-488 limits assumed) above
T1 sequence (P00742 41-179 limits assumed): as the sequence (P00742 41-179 limits assumed) above
free factor Xa, sequence (P00742 235-488 limits assumed): as the sequence (P00742 235-488 limits assumed) above
free factor Xa, sequence (P00742 41-179 partner limits assumed): as the sequence (P00742 41-179 limits assumed) above

## COC(=O)[C@H](Cc1cccc(C(=N)N)c1)[C@@H](C)NC(=O)c1ccc(-c2cc[n+]([O-])cc2)cc1 (mixture of isomers) [Otamixaban, Methyl (2R,3R)-2-{3-[amino(imino)methyl]benzyl}-3-{[4-(1-oxidopyridin-4-yl)benzoyl]amino}butanoate]
Free factor Xa
  Inhibition of free factor Xa: inhibited
Factor Xa
  Factor Xa inhibition in patients: dose-dependent, rapid direct factor Xa inhibition
[1]
  Inhibition of factor Xa assembled in the prothrombinase complex: inhibited
[2]
  Clinical efficacy, safety and tolerability: efficacious, safe and well tolerated
[3]; 40° C. and 75% RH
  Level of Formula II versus pH over storage time: increased faster with lower pH
  Levels of Formula III versus pH over storage time: parallel at different pH values
[3]; pH 2.5, storage 0 months
  Increase of Formula II (carbamimidoyl-benzyl butyric acid): 0.33%
[3]; pH 2.5, storage 1 month
  Increase of Formula II (carbamimidoyl-benzyl butyric acid): 1.47%
[3]; pH 2.5, storage 3 months
  Increase of Formula II (carbamimidoyl-benzyl butyric acid): 3.73%
[3]; pH 2.5, storage 6 months
  Increase of Formula II (carbamimidoyl-benzyl butyric acid): 7.10%
[3]; pH 3.0, storage 0 months
  Increase of Formula II (carbamimidoyl-benzyl butyric acid): 0.18%
[3]; pH 3.0, storage 1 month
  Increase of Formula II (carbamimidoyl-benzyl butyric acid): 0.58%
[3]; pH 3.0, storage 3 months
  Increase of Formula II (carbamimidoyl-benzyl butyric acid): 1.39%
[3]; pH 3.0, storage 6 months
  Increase of Formula II (carbamimidoyl-benzyl butyric acid): 2.61%
[3]; pH 3.2, storage 0 months
  Increase of Formula II (carbamimidoyl-benzyl butyric acid): 0.15%
  Increase of Formula III (carbamoyl-benzyl butyric acid methyl ester): 0.76%
[3]; pH 3.2, storage 1 month
  Increase of Formula II (carbamimidoyl-benzyl butyric acid): 0.41%
  Increase of Formula III (carbamoyl-benzyl butyric acid methyl ester): 0.85%
[3]; pH 3.2, storage 3 months
  Increase of Formula II (carbamimidoyl-benzyl butyric acid): 0.93%
  Increase of Formula III (carbamoyl-benzyl butyric acid methyl ester): 1.00%
[3]; pH 3.2, storage 6 months
  Increase of Formula II (carbamimidoyl-benzyl butyric acid): 1.74%
  Increase of Formula III (carbamoyl-benzyl butyric acid methyl ester): 1.24%
[3]; pH 3.5, storage 0 months
  Increase of Formula II (carbamimidoyl-benzyl butyric acid): 0.12%
[3]; pH 3.5, storage 1 month
  Increase of Formula II (carbamimidoyl-benzyl butyric acid): 0.27%
[3]; pH 3.5, storage 3 months
  Increase of Formula II (carbamimidoyl-benzyl butyric acid): 0.55%
[3]; pH 3.5, storage 6 months
  Increase of Formula II (carbamimidoyl-benzyl butyric acid): 0.99%
[3]; pH 3.7, storage 0 months
  Increase of Formula II (carbamimidoyl-benzyl butyric acid): 0.11%
[3]; pH 3.7, storage 1 month
  Increase of Formula II (carbamimidoyl-benzyl butyric acid): 0.22%
[3]; pH 3.7, storage 3 months
  Increase of Formula II (carbamimidoyl-benzyl butyric acid): 0.42%
[3]; pH 3.7, storage 6 months
  Increase of Formula II (carbamimidoyl-benzyl butyric acid): 0.72%
[3]; pH 4.0, storage 0 months
  Increase of Formula II (carbamimidoyl-benzyl butyric acid): 0.12%
[3]; pH 4.0, storage 1 month
  Increase of Formula II (carbamimidoyl-benzyl butyric acid): 0.18%
[3]; pH 4.0, storage 3 months
  Increase of Formula II (carbamimidoyl-benzyl butyric acid): 0.32%
[3]; pH 4.0, storage 6 months
  Increase of Formula II (carbamimidoyl-benzyl butyric acid): 0.52%
[3]; pH 4.2, storage 0 months
  Increase of Formula II (carbamimidoyl-benzyl butyric acid): 0.13%
[3]; pH 4.2, storage 1 month
  Increase of Formula II (carbamimidoyl-benzyl butyric acid): 0.18%
[3]; pH 4.2, storage 3 months
  Increase of Formula II (carbamimidoyl-benzyl butyric acid): 0.27%
[3]; pH 4.2, storage 6 months
  Increase of Formula II (carbamimidoyl-benzyl butyric acid): 0.43%
[3]; pH 4.5, storage 0 months
  Increase of Formula II (carbamimidoyl-benzyl butyric acid): 0.15%
[3]; pH 4.5, storage 1 month
  Increase of Formula II (carbamimidoyl-benzyl butyric acid): 0.20%
[3]; pH 4.5, storage 3 months
  Increase of Formula II (carbamimidoyl-benzyl butyric acid): 0.30%
[3]; pH 4.5, storage 6 months
  Increase of Formula II (carbamimidoyl-benzyl butyric acid): 0.44%
[3]; pH 4.7, storage 0 months
  Increase of Formula II (carbamimidoyl-benzyl butyric acid): 0.20%
[3]; pH 4.7, storage 1 month
  Increase of Formula II (carbamimidoyl-benzyl butyric acid): 0.25%
[3]; pH 4.7, storage 3 months
  Increase of Formula II (carbamimidoyl-benzyl butyric acid): 0.36%
[3]; pH 4.7, storage 6 months
  Increase of Formula II (carbamimidoyl-benzyl butyric acid): 0.52%
thrombosis
  Efficacy in models of thrombosis: highly efficacious
[4]; pH 2.5, 0 autoclaving
  Increase of Formula III (carbamoyl-benzyl butyric acid methyl ester): 0.39%
[4]; pH 2.5, 1 autoclaving
  Increase of Formula III (carbamoyl-benzyl butyric acid methyl ester): 0.71%
[4]; pH 2.5, 2 autoclaving
  Increase of Formula III (carbamoyl-benzyl butyric acid methyl ester): 1.02%
[4]; pH 2.5, 3 autoclaving
  Increase of Formula III (carbamoyl-benzyl butyric acid methyl ester): 1.32%
[4]; pH 3.0, 0 autoclaving
  Increase of Formula III (carbamoyl-benzyl butyric acid methyl ester): 0.39%
[4]; pH 3.0, 1 autoclaving
  Increase of Formula III (carbamoyl-benzyl butyric acid methyl ester): 0.74%
[4]; pH 3.0, 2 autoclaving
  Increase of Formula III (carbamoyl-benzyl butyric acid methyl ester): 1.09%
[4]; pH 3.0, 3 autoclaving
  Increase of Formula III (carbamoyl-benzyl butyric acid methyl ester): 1.43%
[4]; pH 3.2, 0 autoclaving
  Increase of Formula III (carbamoyl-benzyl butyric acid methyl ester): 0.39%
[4]; pH 3.2, 1 autoclaving
  Increase of Formula III (carbamoyl-benzyl butyric acid methyl ester): 0.76%
[4]; pH 3.2, 2 autoclaving
  Increase of Formula III (carbamoyl-benzyl butyric acid methyl ester): 1.13%
[4]; pH 3.2, 3 autoclaving
  Increase of Formula III (carbamoyl-benzyl butyric acid methyl ester): 1.50%
[4]; pH 3.5, 0 autoclaving
  Increase of Formula III (carbamoyl-benzyl butyric acid methyl ester): 0.39%
